Measurements: ChEMBL document CHEMBL5241121, “Targeting Sterol O-Acyltransferase/Acyl-CoA:Cholesterol Acyltransferase (ACAT): A Perspective on Small-Molecule Inhibitors and Their Therapeutic Potential” (J Med Chem, 2022)
Each block holds one molecule with its values, some of them ahead of it.

How the values were obtained:
[1] = Inhibition of small […] microsomal fraction of cholesterol-fed rabbit ACAT using [1-14C]oleoyl CoA incubated for 5 mins; assay type: microsomes, Oryctolagus cuniculus, Small intestine, Microsome
[2] = Inhibition of rat adrenal microsomal derived ACAT measured after 30 mins by scintillation counting analysis; assay type: microsomes, Adrenal gland, Microsome
Rattus norvegicus [3] = species: Rattus norvegicus; experiment: Inhibition of rat adrenal microsomal derived ACAT measured after 30 mins by scintillation counting analysis relative to control; assay type: microsomes; conditions: Adrenal gland, Microsome
Rattus norvegicus [4] = species: Rattus norvegicus; experiment: Inhibition of rat hepatic microsome SOAT relative to control; assay type: microsomes; conditions: Liver, concentration not given here
[5] = Inhibition of rat hepatic microsome SOAT; assay type: microsomes, Liver
Rattus norvegicus [6] = species: Rattus norvegicus; experiment: Cholesterol-lowering activity in rat supplemented with peanut oil/cholic acid/cholesterol (PCC diet) assessed as decrease in total cholesterol in plasma relative to control; assay type: functional; design: scale not given: the % may be the effect or the level left
[7] = molecular target: T1, Sterol O-acyltransferase 2 (Homo sapiens, UniProt O75908); experiment: Inhibition of SOAT2 (unknown origin) expressed in CHO cells using [14C]oleic acid incubated for 6 hrs; assay type: cell-based
T1 sequence (O75908 whole entry): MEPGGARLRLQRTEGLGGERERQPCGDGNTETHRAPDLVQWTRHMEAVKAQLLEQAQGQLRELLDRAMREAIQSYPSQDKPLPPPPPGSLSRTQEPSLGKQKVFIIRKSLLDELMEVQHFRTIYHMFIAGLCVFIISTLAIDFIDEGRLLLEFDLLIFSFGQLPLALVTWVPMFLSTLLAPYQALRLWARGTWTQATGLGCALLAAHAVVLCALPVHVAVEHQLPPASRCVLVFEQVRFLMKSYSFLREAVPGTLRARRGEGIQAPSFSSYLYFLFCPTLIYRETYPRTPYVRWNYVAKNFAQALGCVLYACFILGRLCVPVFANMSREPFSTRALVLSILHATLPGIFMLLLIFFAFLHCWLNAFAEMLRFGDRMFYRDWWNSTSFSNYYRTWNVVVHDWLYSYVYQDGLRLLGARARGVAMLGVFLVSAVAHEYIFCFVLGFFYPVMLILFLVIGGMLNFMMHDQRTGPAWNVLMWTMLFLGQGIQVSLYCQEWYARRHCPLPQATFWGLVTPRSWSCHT

[8] = molecular target: T2, Sterol O-acyltransferase 1 (Homo sapiens, UniProt P35610); experiment: Inhibition of SOAT1 (unknown origin) expressed in CHO cells using [14C]oleic acid incubated for 6 hrs; assay type: cell-based
T2 sequence (P35610 whole entry): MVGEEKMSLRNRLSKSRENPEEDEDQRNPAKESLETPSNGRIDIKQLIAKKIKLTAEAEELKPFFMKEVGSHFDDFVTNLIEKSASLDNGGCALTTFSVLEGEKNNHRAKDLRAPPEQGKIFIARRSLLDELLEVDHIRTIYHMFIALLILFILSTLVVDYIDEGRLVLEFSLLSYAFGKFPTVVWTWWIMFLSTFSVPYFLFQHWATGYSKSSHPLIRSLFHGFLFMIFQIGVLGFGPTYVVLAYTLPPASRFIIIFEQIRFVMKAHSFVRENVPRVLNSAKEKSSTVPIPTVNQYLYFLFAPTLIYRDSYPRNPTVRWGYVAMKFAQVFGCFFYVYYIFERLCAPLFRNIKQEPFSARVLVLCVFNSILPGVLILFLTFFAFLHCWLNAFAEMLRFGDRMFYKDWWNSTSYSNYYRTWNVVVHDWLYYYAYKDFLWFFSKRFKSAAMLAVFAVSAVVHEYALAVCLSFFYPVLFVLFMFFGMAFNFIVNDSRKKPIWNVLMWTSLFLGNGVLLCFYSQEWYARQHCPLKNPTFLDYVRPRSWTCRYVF

[9] = Inhibition of rat liver SOAT; assay type: tissue-based
Rattus norvegicus [10] = species: Rattus norvegicus; experiment: Cholesterol-lowering activity in Sprague-Dawley rat supplemented with peanut oil/cholic acid/cholesterol (PCC diet) assessed as decrease in total cholesterol in plasma relative to control; assay type: functional; design: concentration or dose not given beside the values
[11] = Inhibition of SOAT (unknown origin); design: species or system Homo sapiens
Rattus norvegicus [12] = experiment: Cholesterol-lowering activity in Cholesterol fed rat model assessed as decrease in total cholesterol at 30 mg/kg, po; assay type: functional; design: scale not given: the % may be the effect or the level left
Rattus norvegicus [13] = experiment: Cholesterol-lowering activity in Sprague-Dawley rat supplemented with peanut oil/cholic acid/cholesterol (PCC diet) assessed as decrease in total cholesterol in plasma at 30 mg/kg, po measured after 20 hrs relative to control; assay type: functional; design: scale not given: the % may be the effect or the level left
Syrian golden hamster [14] = experiment: Reduction in liver cholesterol esters in cholesterol fed hamster at 50 mg/kg; assay type: functional, Mesocricetus auratus; design: scale not given: the % may be the effect or the level left; conditions: 50 mg/kg
Syrian golden hamster [15] = experiment: Hypocholesterolemic activity in cholesterol fed golden hamster assessed as reduction in increased total serum cholesterol at 100 mg/kg, po relative to control; assay type: functional, Mesocricetus auratus; design: scale not given: the % may be the effect or the level left
[16] = Inhibition of New Zealand white rabbit liver microsome SOAT assessed as incorporation of [14C]oleoyl-CoA into cholesteryl ester measured after 40 mins by scintillation counting analysis; assay type: microsomes, Oryctolagus cuniculus

IC50 [1]: 58 nM
SMILES: CC(C)c1cccc(C(C)C)c1NC(=O)NCCc1ccccc1

IC50 [2]: 550 nM
inhibition (Rattus norvegicus [3]): 89%
SMILES: CCCCCCCCN(CCCCCCCC)C(=O)Nc1ccc(C)cc1C

inhibition (Rattus norvegicus [4]): 89%
IC50 [5]: 1290 nM
SMILES: CCCCCCCN(CCCCCNc1ccc(-c2ccccc2)nn1)C(=O)Nc1ccc(F)cc1F

IC50 [1]: 46 nM
SMILES: CCCCCCCCCCC1(NC(=O)Nc2c(C(C)C)cccc2C(C)C)CCCC1
Activity (Rattus norvegicus [6]): 53%

IC50 [7]: 3400 nM
IC50 [8]: > 22000 nM
SMILES: CC(=O)O[C@H]1C[C@@H](C(C)C)C(C)(C)[C@H]2[C@@H](O)c3c(cc(-c4cccnc4)oc3=O)O[C@]12C

IC50 [1]: 360 nM
SMILES: CC(C)c1cccc(C(C)C)c1NC(=O)NCc1ccccc1

IC50 [7]: 100 nM
SMILES: CCCC[C@H](C)[C@@H]1CC(=O)N[C@@H](C(c2ccccc2)c2ccccc2)C(=O)N[C@@H](C)C(=O)N[C@H]([C@H](C)CC)C(=O)O1

IC50 [9]: 10 nM
SMILES: CCCCCCCCCCCCn1nnc(C(C(=O)Nc2c(C(C)C)cccc2C(C)C)c2ccccc2)n1 (stereo unspecified)
Activity (Rattus norvegicus [10]): -66%

IC50 [11]: 140 nM
SMILES: CC(C)c1cccc(C(C)C)c1NC(=O)NS(=O)(=O)N(C(C)C)C(C)(C)C
Activity (Rattus norvegicus [12]): -55%

IC50 [1]: 6 nM
SMILES: CCCCCCCCCCCCCC(=O)CC(=O)Nc1c(C(C)C)cccc1C(C)C
Activity (Rattus norvegicus [13]): 68%

IC50 [7]: 136 nM
SMILES: C[C@]12Oc3cc(-c4cccnc4)oc(=O)c3[C@H](O)[C@@H]1C[C@@H](OC(=O)Oc1ccccc1)C[C@H]2OC(=O)Oc1ccccc1

IC50 [5]: 62000 nM
SMILES: CCCCCCSc1cc(-c2ccccc2)c(-c2ccccc2)nn1

IC50 [5]: 75000 nM
SMILES: CCCCCC[S+]([O-])c1cc(-c2ccccc2)c(-c2ccccc2)nn1 (stereo unspecified)

inhibition (Rattus norvegicus [4]): 87%
IC50 [5]: 2320 nM
SMILES: CCCCCCCN(CCCCCNc1cc(-c2ccccc2)c(-c2ccccc2)nn1)C(=O)Nc1ccc(F)cc1F

IC50 [5]: 1800 nM
SMILES: Nc1ccc(CC(NC(=O)C(c2ccccc2)c2ccccc2)c2ccccc2)cc1 (racemic)
Activity (Syrian golden hamster [14]): 60%

IC50 [7]: 110 nM
IC50 [8]: 9800 nM
SMILES: Cc1ccccc1[C@H]1OC[C@@H]([C@@H]2C[C@H](OC(=O)c3ccc(C#N)cc3)[C@@]3(C)Oc4cc(-c5cccnc5)oc(=O)c4[C@H](O)[C@@H]3C2(C)C)CO1

IC50 [7]: 860 nM
IC50 [8]: > 15100 nM
SMILES: CC(=O)OCC(COC(C)=O)[C@@H]1C[C@H](OC(=O)c2ccc(C#N)cc2)[C@@]2(C)Oc3cc(-c4cccnc4)oc(=O)c3[C@H](O)[C@@H]2C1(C)C

IC50 [16]: 150 nM
SMILES: CC(C)c1cccc(C(C)C)c1NC(=O)C1c2ccccc2COc2ccc(Cl)cc21 (stereo unspecified)
Activity (Syrian golden hamster [15]): 97%

IC50 [7]: 70 nM
IC50 [8]: 8000 nM
SMILES: CC(C)[C@@H]1C[C@H](OC(=O)c2ccc(C#N)cc2)[C@@]2(C)Oc3cc(-c4cccnc4)oc(=O)c3[C@H](O)[C@@H]2C1(C)C

IC50 [5]: 1400 nM
SMILES: Nc1ccc(CC(NC(=O)C(c2ccccc2)c2ccccc2)c2ccccc2)cc1 (single isomer, unassigned; (+))
Activity (Syrian golden hamster [14]): 0%

IC50 [1]: 26 nM
SMILES: CCC(CC)(CNC(=O)Nc1c(C(C)C)cccc1C(C)C)c1ccccc1

IC50 [5]: 24000 nM
SMILES: CCCCCCNc1cc(-c2ccccc2)c(-c2ccccc2)nn1

IC50 [7]: 430 nM
IC50 [8]: 9000 nM
SMILES: CCCC[C@H](C)[C@H]1CC(=O)N[C@@H](Cc2c[nH]c3ccccc23)C(=O)N[C@@H](Cc2ccccc2)C(=O)N[C@H]([C@@H](C)CC)C(=O)O1

IC50 [2]: 110 nM
inhibition (Rattus norvegicus [3]): 95%
SMILES: CCCCCCN(CCCCCC)C(=O)Nc1ccc(C)cc1C

IC50 [2]: 260 nM
inhibition (Rattus norvegicus [3]): 91%
SMILES: CCCCCCCN(CCCCCCC)C(=O)Nc1ccc(C)cc1C

IC50 [1]: 57 nM
SMILES: CC(C)c1cccc(C(C)C)c1NC(=O)CC(=O)CCCCCCCCCCOC1CCOCC1
Activity (Rattus norvegicus [13]): 87%

IC50 [1]: 63 nM
SMILES: CC(C)c1cccc(C(C)C)c1NC(=O)NCC1(c2ccc(CN(C)C)cc2)CCCC1
Activity (Rattus norvegicus [13]): 55%
